From patent publication US11654126B2, “Method of inhibiting the proliferation of T and/or B lymphocytes via dimethylarginine derivatives and lymphocytes proliferation inhibitor” (GUANGZHOU MEDICAL UNIVERSITY, priority 2019, dated 2023)
Entries after “also recorded” stand apart in the source; their conditions may differ.

Key:
[1] = test system: SKG mice arthritis; assay: Arthritis in beta-glucan injected SKG mice; type: in vivo; conditions: SKG mice with score 8 or above; DMGV 750 μg/mouse in the peritoneum up to 50 days; N=7, P=0.0006 (2-way ANOVA); FIG. 7
Experimental: SKG mice (purchased from CLEA Japan, Inc.) develop arthritis because a mutation in the ZAP-70 gene, which causes activation of T cells. SKG mice were injected with beta-glucan (30 mg/mouse, Sigma) to accelerate development of arthritis and the arthritis score was calculated as described in the literature (for specific preparation procedures, refer to Yoshitomi, H, J. Exp Med. 2005). Mice that reached the arthritis score of 8 or above in less than 2 months were selected and treated with DMGV (750 μg/mouse) twice a week up to 50 days.

[2] = test system: mouse splenic T cells; assay: DMGV-induced ROS in mouse T cells (flow cytometry); type: cell-based; conditions: 1 h, FIG. 6A
Experimental: (§1) DMGV was synthesized as described in the literature (for specific preparation procedures, refer to J. Mass Spectrom. 2012, 47, 1594; Anal. Biochem. 2011, 419, 234). Mouse and human T cells were treated with none, or DMGV (10 μM), or DMGV+MitoQ (100 nM) for 1 h and ROS was measured by flow cytometry. The results are shown in FIG. 6A and FIG. 6B, respectively.

[3] = test system: human T cells; assay: DMGV human T cell proliferation (anti-CD3/anti-CD28 activation); type: cell-based; conditions: 3 days, FIG. 6D
Experimental: (§2) Mouse or human T cells were activated by anti-CD3 and anti-28 antibodies with none, DMGV (10 μM), or DMGV+MitoQ (100 nM) for 3 days and proliferation was measured by flow cytometry. The results are shown in FIG. 6C and FIG. 6D, respectively.

[4] = test system: mouse T cells; assay: DMGV mouse T cell proliferation (anti-CD3/anti-CD28 activation); type: cell-based; conditions: 3 days, FIG. 6C
Experimental: as §2

[5] = test system: human peripheral T cells; assay: DMGV-induced ROS in human T cells (flow cytometry); type: cell-based; conditions: 1 h, FIG. 6B
Experimental: as §1

[6] = test system: mouse T cells; assay: Mouse T cell proliferation assay (anti-CD3/CD28 beads, CellTrace Violet, flow cytometry); type: cell-based; conditions: 1 μM and 5 μM; for survival rate of cells / number of divided T cells: 3 days of stimulation, vs control group; for survival rate of cells: FIG. 1A; for number of divided T cells: FIG. 1B; for proliferation of mouse T cells: P<0.001
Experimental: Total splenic T cells were isolated by StemCell isolation kit: From female 6-8 weeks old C57BL mice, spleens were harvested, mechanically disrupted, and incubated with a biotinylated antibody cocktail consisting of antibodies to B220, CD11b, CD11c, CD16/32, CD19, CD25, CD105, NK1.1, and TCRγδ (StemCell). After a wash step, cells were incubated with streptavidin-coated magnetic nanoparticles (StemCell). CD3^+ cells were then isolated by applying a magnetic field and collecting the unbound cells.
The total T cells obtained in step 1 were labeled with the proliferation indicator dye CellTrace Violet according to the manufacturer's protocol, and then seeded in 96-well round bottom cell culture plates at 2×10^5 per well, next the cells were stimulated with anti-CD3 and anti-CD28 antibody coated magnetic beads (Gibco Dynabeads mouse T-activator CD3/CD28 for T-cell expansion and activation) with the beads to cells ratio of 1:4, and then expanded in RPMI-1640 medium up to 4 days, and dilution of CellTrace Violet was then evaluated by flow cytometry.
Experimental group: different concentrations of ADMA or SDMA were added (ADMA and SDMA dissolved in sterile endotoxin-free water, and the concentration of the storage solution is 0.5 mM); Control group: the same volume of sterile endotoxin-free water was added without ADMA or SDMA.

[7] = test system: activated human T cells; assay: Proliferation of activated human T cells (compound added 24 h after anti-CD3/CD28 stimulation); type: cell-based; conditions: ADMA 1 μM; for inhibitory effect compared with other substances / number of live cells / T cell proliferation: PD404182 100 nM; for inhibitory effect compared with other substances / number of live cells: rapamycin 50 nM; for number of live cells: 24 h and 48 h after addition, vs control, FIG. 5A, 5B; for T cell proliferation: activated human T cells
Experimental: Human T cells were stimulated with anti-human CD3 and CD28 for 24 hours. […] Flow cytometry was used to analyze the number of live cells and the number of divided cells. The results are shown in FIG. 5A and FIG. 5B, respectively.

[8] = test system: human T cells; assay: Human T cell in vitro proliferation assay (anti-CD3/anti-CD28, CellTrace Violet); type: cell-based; conditions: 1 μM; for proliferation of human T cells: P<0.001; for number of divided T cells: human T cells, after 4 days of culture, FIG. 2
From the text: Human T cell isolation and in vitro proliferation experiments: the use of blood from healthy adult blood donors was approved by the Ethics Committee of the Medical Faculty of Guangzhou Medical University, Guangzhou, China. Peripheral blood mononuclear cells (PBMCs) were isolated using Sepmate PBMC isolation tubes following the manufacturer's instructions (StemCell). CD3^+ human T cells were positively isolated by magnetic cell sorting (Miltenyi Biotec, Bergisch-Gladbach, Germany). Purified T cells were labeled with the proliferation dye CellTrace Violet according to the manufacturer's protocol. Then the cells (1×10^5 cells per well in flat bottom 96 well plate) were stimulated in vitro with immobilized anti-CD3 (5 μg/ml) and anti-CD28 (2 μg/ml) antibody (Biolegend, San Diego, USA), and expanded in RPMI1640 medium up to 5 days. Dilution of CellTrace Violet, indicating proliferation, was then evaluated by flow cytometry.

[9] = test system: mouse B cells; assay: Mouse B cell proliferation assay (splenocytes, IL-4 + anti-IgM, CellTrace Violet); type: cell-based; conditions: 5 μM; for B cells proliferation: P<0.01; for number of live B cells / number of divided B cells: after 4 days; for number of live B cells: FIG. 3A; for number of divided B cells: FIG. 3B
Experimental: Spleens were harvested, mechanically disrupted, and resuspend in RPMI 1640 complete medium (10% FBS).
Total splenocytes were then labeled with the proliferation dye CellTrace Violet according to the manufacturer's protocol. Then splenocytes (1×10^5 cells per well in flat bottom 96 well plate) were stimulated with recombinant human IL-4 ([…] and α-mouse IgM (10 μg/ml), and expanded in RPMI1640 medium up to 5 days. Dilution of CellTrace Violet was then evaluated by flow cytometry. (Note; splenocytes contain T cells and monocytes, which will die off during the assay period.)
Experimental group: ADMA or SDMA (5 μM) was added (ADMA and SDMA dissolved in sterile endotoxin-free water, the storage solution concentration is 0.5 mM). Control group: the same volume of sterile endotoxin-free water without ADMA or SDMA was added.

[10] = test system: mouse T cells; assay: ROS generation in T cells (CellROX Green, flow cytometry); type: cell-based
Experimental: For flow cytometry, T cells were stained with 5 μM CellROX Green Reagent (Life Technologies) for 30 min at 37° C. in the presence or absence of ADMA or SDMA (5 μM), and then washed with 1×PBS once. MitoQ (100 nM) was added with ADMA and SDMA. Cells were resuspended in 300 μl of PBS before the analysis by flow cytometry.
Experimental Groups: ADMA alone, SDMA alone, or ADMA/SDMA (ADMA/SDMA represents the mixture of ADMA and SDMA herein) was used at the final concentration of 1 μM, MitoQ was used either at 10 nM or 100 nM.

[11] = test system: T cells; assay: Effect of MitoQ on T cell proliferation in vitro with ADMA/SDMA; type: cell-based, mouse; conditions: MitoQ 100 nM + ADMA/SDMA 1 μM vs ADMA/SDMA group; 3 days; FIG. 4D
Experimental: After incubating MitoQ and ADMA/SDMA together with T cells up to 3 days, flow cytometry was used to investigate the effect on the T cells proliferation in vitro.
Experimental groups: Control, ADMA/SDMA (1 μM), and ADMA/SDMA (1 μM)+MitoQ (100 nM).

[12] = ADMA or SDMA alone vs none, 2 hours, FIG. 4A

dimethylguanidino valeric acid [DMGV]
arthritis score [1]: significantly decreased the arthritis score in all mice | ROS ([2]; DMGV 10 μM): induces ROS | proliferation ([3]; DMGV 10 μM): inhibited proliferation | proliferation [4]: inhibited proliferation | ROS ([5]; DMGV 10 μM): induces ROS

CN(C)C(N)=NCCC[C@H](N)C(=O)O [ADMA, asymmetric dimethylarginine]
survival rate of cells [6]: reduced the survival rate of cells | number of divided T cells [6]: resulted in the reduction of the number of divided T cells | proliferation of mouse T cells [6]: significantly inhibit the proliferation of mouse T cells | inhibitory effect compared with other substances [7]: better than PD404182; also recorded: superior to the mTOR inhibitor rapamycin | number of live cells [7]: the number of live cells declined | T cell proliferation [7]: can inhibit T cell proliferation | number of divided cells of T cells ([7]; vs control or rapamycin group): decreased significantly | proliferation of human T cells [8]: inhibit proliferation of human T cells significantly | number of divided T cells [8]: reduced the number of divided T cells | B cells proliferation [9]: significantly inhibit B cells proliferation | number of live B cells [9]: reduced the number of live | number of divided B cells [9]: reduced the number of live (FIG. 3A) and divided B cells | ROS [10, 12]: ROS was significantly induced

CN=C(NC)NCCC[C@H](N)C(=O)O [SDMA, symmetric dimethylarginine]
survival rate of cells [6]: reduced the survival rate of cells | number of divided T cells [6]: resulted in the reduction of the number of divided T cells | proliferation of mouse T cells [6]: significantly inhibit the proliferation of mouse T cells | proliferation of human T cells [8]: inhibit proliferation of human T cells significantly | number of divided T cells [8]: reduced the number of divided T cells | B cells proliferation [9]: significantly inhibit B cells proliferation | number of live B cells [9]: reduced the number of live | number of divided B cells [9]: reduced the number of live (FIG. 3A) and divided B cells | ROS [10, 12]: ROS was significantly induced

COC1=C(OC)C(=O)C(CCCCCCCCCC[P+](c2ccccc2)(c2ccccc2)c2ccccc2)=C(C)C1=O [MitoQ, reference compound]
effect on inhibition of T cells proliferation by ADMA/SDMA [11]: significantly prevent the inhibitory effect of ADMA and SDMA on T cells proliferation | ROS ([10]; MitoQ (100 nM) with ADMA/SDMA vs ADMA/SDMA alone, FIG. 4B): decreased significantly | effect on DMGV-induced ROS ([2]; DMGV 10 μM plus MitoQ 100 nM): inhibited by MitoQ | effect on inhibition of proliferation by DMGV ([3]; DMGV 10 μM plus MitoQ 100 nM): inhibited by MitoQ | effect on DMGV-induced ROS ([5]; DMGV 10 μM plus MitoQ 100 nM): inhibited by MitoQ

N=C1Sc2ccccc2C2=NCCCN12 [PD404182, reference compound]
inhibitory effect compared with other substances [7]: superior to the mTOR inhibitor rapamycin | number of live cells [7]: the number of live cells declined | T cell proliferation [7]: can inhibit T cell proliferation
